Results from patent US20250177392A1, “BROAD SPECTRUM INHIBITORS OF CYTOMEGALOVIRUS” (MICROBIOTIX, INC., priority 2022, published 2025).
pIC50: −log10 of the molar value.

Key:
HCMV GDGr K17 (GCV^R) = assay: Herpes virus panel neutralization, GCV-resistant HCMV; assay type: cell-based, Human cytomegalovirus
Protocol: To determine the specificity of MBX-4992, additional neutralization experiments were conducted using a panel of herpes viruses performed in the presence of MBX-4992. […] Collectively, the antiviral activity of MBX-4992 is equivalent to that of GCV indicating specific inhibition of CMV replication.

NHDF cells = assay: CellTiter Glo ATP luciferase assay; assay type: cell-based, human; settings: human, 6 days
Protocol: Fibroblasts were treated with increasing concentrations of MBX-4992 and MBXC-4336 for up to 6 days and cell number was measured periodically using Hoechst stain to quantify cell proliferation (A and B). Cyclohexamide (CHX) and DMSO (−) were used as positive and negative controls for cytotoxicity respectively. Cell cytostaticity (C and D) was assessed using ATP-based CellTiter Glo luciferase assay following extended incubation with increasing concentrations of MBX-4992 and MBXC-4336 for 1 or 6 days. Relative light units (RLU) were measured following cell lysis and normalized to DMSO treated cells for each time point.
The CellTiter Glo Luminescent Assay (Promega Inc, Madison, WI) was performed according to the manufacturer's instruction. NHDF cells (10^4) were plated in a 96-well plate overnight and treated with MBX-4992 or MXC-4336 ([…]) in triplicate for up to 6 days. Cyclohexamide (50 μg/mL) was used as a control. CellTiter Glo substrate was added in a 1:1 ratio with media and CellTiter-Glo reagent followed by the analysis of luciferase activity (relative light units, RLU) using a BioTek Synergy H1 microplate reader. In parallel, an identical plate was labelled with Hoescht reagent (25 μg/mL) to quantify the cell number using a Celigo Cytometer.
Next, the cytostaticity and cytotoxicity of treatment with MBX-4992 and MBXC-4336 was analyzed. […]

Compound | SI (HCMV GDGr K17 (GCV^R); HCMV GDGr K17 (GCV^R)) | pIC50 (HCMV GDGr K17 (GCV^R); Human betaherpesvirus 5) | decrease of luciferase activity (NHDF cells) [%]
Cc1nc(Nc2ccc(NC(=O)c3ccco3)cc2)cc(N2CCCC2)n1 [MBX-4992] | >83 | 5.74 | 
Cc1nc(Nc2cccc(NC(=O)c3ccco3)c2)cc(N2CCCCC2)n1 [MBXC-4336] |  |  | 10
